Reference: PMC6691587, “New CXCR1/CXCR2 inhibitors represent an effective treatment for kidney or head and neck cancers sensitive or refractory to reference treatments” (Theranostics, 2019)
“Also recorded” adds a separate entry of the source. Like-named read-outs stand apart in the source and are kept apart here.

Tests used:
[1] = test system: OCI-AML2; test: XTT cell viability assay, OCI-AML2 AML cells; type: cell-based, human; settings: Homo sapiens, OCI-AML2, 48 h, SD 10%, mean of three experiments, read-out: IC50 L2 (AML)
Description: (§1) Fifty microliters of sodium 3′-[1-phenylaminocarbonyl)-3,4-tetrazolium]-bis(4-methoxy-6-nitro) benzene sulfonic acid hydrate (XTT) reagent was added to each well. The assay is based on the cleavage of the yellow tetrazolium salt XTT to form an orange formazan dye by metabolically active cells. This bio-reduction occurs in viable cells only and is related to NAD(P)H production through glycolysis. Therefore, the amount of formazan dye measured at 490 nm directly correlated with the number of metabolically active cells reflecting cell proliferation and viability. Each assay was performed in quadruplicate.

[2] = In vitro (in cellulo) stability assay; type: in vitro ADME, human; settings: 786-O cells, 2.5 µM, 24 h at room temperature, UPLCMS/MS
Description: The in vitro stability was determined as followed: 786-O cells were treated with 2.5 µM of compound C29 for the defined time, then lysed with methanol. The lysates were filtered and analyzed by UPLCMS/MS.

[3] = test system: ERK/MAP Kinase and PI3K/AKT signaling pathways; test: p-ERK and p-AKT immunoblotting in RCC and HNSCC cells; type: cell-based, human; settings: naive and resistant RCC and HNSCC cells, 2.5 µM, 1 h to 48 h
Description: Cells were lysed in buffer containing 3% SDS, 10% glycerol and 0.825 mM Na2HPO4. 30 to 50 μg of proteins separated on 10% SDS-PAGE, transferred onto a PVDF membrane and then exposed to the appropriate antibodies. Proteins were visualized with the ECL system using horseradish peroxidase-conjugated anti-rabbit or anti-mouse antibodies.

[4] = test system: primary kidney tumor cells (CC); test: Cell viability, primary kidney tumor cells CC; type: cell-based
Description: as §1
For the experiments with C29, we confirmed all the results by evaluating the cell viability. Cell viability and cell death was assessed using the ADAM-MC apparatus (NanoEnTek, Guro-gu, Seoul, Korea) based on fluorescent propidium iodide staining according to the manufacturer's instructions.
To determine the selectivity of the activity of the substances tested, the selectivity index (SI) was calculated according to the equation previously described where SI = IC50 of a compound in a normal cell line/IC50 of the same compound in cancer cell line. The IC50 is the concentration required to kill 50% of the cell population.

[5] = test system: A498; test: XTT cell viability assay, A498 RCC cells; type: cell-based, human; settings: for IC50: Homo sapiens, A498
Description: as §1

IC50 [1]: 5000 nM
IC50 ([4]; CXCR1+/CXCR2+): 2000 nM
Compound: O=C(Nc1cccc(Cl)c1)Nc1nc2ccc([N+](=O)[O-])cc2s1 [C29]
stability in cellulo (degradation) [2]: No degradation; also recorded: absence of degradation
ERK/MAP Kinase and PI3K/AKT signaling pathways (p-ERK, p-AKT) [3]: inhibited
proliferation of primary kidney tumor cells CC ([4]; Figure S8A-B): significantly decreased
Selectivity index CC ([4]; SI = IC50 in normal cells (15S)/IC50 in CC): 6.25
IC50 ([5]; CXCR1+/CXCR2+, read-out: IC50 A498): 2500 nM
IC50 ([5]; XTT assay, 48 h, SD 10%, mean of three experiments, read-out: IC50 498 (Kidney RCC)): 2500 nM
Selectivity index A498 ([5]; SI = IC50 in normal cells (15S)/IC50 in A498): 5
